Drawing on patent US20180148418A1, “AMIDO-SUBSTITUTED CYCLOHEXANE DERIVATIVES” (Bayer Pharma Aktiengesellschaft, priority 2015, published 2018), this text covers IC50 for 14 compounds.

For the assay, the target named is T1, TNKS1 (Homo sapiens, UniProt O95271).
T1 construct: purchased BPS Bioscience, San Diego, USA 80579 (TNKS1 Histone Ribosylation Assay Kit)
T1 sequence (O95271 1-1327): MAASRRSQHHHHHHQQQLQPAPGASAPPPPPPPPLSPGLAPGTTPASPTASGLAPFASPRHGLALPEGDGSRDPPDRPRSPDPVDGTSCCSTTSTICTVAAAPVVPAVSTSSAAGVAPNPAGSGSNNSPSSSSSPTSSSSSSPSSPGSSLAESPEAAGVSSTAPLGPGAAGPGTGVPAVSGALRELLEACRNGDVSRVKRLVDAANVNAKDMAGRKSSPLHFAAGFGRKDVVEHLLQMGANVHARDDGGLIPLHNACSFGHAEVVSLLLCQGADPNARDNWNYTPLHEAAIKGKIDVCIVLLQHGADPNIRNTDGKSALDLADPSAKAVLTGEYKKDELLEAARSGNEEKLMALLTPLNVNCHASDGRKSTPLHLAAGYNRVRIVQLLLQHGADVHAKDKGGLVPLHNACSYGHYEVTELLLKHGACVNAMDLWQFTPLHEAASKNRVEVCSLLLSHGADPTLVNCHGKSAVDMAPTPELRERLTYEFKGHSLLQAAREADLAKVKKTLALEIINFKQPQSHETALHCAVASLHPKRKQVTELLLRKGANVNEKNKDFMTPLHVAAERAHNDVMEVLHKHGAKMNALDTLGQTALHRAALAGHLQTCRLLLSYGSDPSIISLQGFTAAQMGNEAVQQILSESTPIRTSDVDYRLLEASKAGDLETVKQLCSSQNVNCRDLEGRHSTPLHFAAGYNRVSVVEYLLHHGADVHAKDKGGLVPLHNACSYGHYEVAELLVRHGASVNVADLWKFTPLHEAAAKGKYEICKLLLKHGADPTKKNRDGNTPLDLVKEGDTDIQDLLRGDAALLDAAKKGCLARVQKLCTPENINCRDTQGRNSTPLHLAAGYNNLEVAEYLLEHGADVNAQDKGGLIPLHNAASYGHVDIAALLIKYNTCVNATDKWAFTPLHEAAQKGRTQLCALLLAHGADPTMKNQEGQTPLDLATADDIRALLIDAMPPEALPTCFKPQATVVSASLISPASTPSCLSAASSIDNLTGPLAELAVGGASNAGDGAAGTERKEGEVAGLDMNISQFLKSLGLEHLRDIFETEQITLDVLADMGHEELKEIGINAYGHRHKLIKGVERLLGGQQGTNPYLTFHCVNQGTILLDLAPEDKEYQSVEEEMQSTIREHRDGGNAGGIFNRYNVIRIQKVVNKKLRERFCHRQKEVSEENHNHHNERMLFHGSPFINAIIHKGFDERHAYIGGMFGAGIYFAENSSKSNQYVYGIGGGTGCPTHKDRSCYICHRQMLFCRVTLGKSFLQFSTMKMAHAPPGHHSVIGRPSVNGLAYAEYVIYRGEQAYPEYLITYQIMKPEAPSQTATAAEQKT
Kind of assay: TNKS1 Assay B (auto-parsylation, [3H]-NAD+ SPA). In kind it is biochemical. The following applies: 6 nM TNKS1, auto-parsylation, over night at room temperature.

The structures appear in SMILES notation.

Turning to `O=C(N[C@H]1CC[C@]2(CCN(c3ccc(F)cc3Cl)C2=O)CC1)c1cnn2cccnc12` [Example 148, N-[(cis)-2-(2-chloro-4-fluorophenyl)-1-oxo-2-azaspiro[4.5]dec-8-yl]pyrazolo[1,5-a]pyrimidine-3-carboxamide], the midpoint of inhibition, the IC50, lay at 3900 nM.
As for `O=C(N[C@H]1CC[C@H](C(=O)Nc2cnc(C(F)(F)F)cc2Cl)CC1)c1cnn2cccnc12` [Example 149, N-(trans-4-{[4-chloro-6-(trifluoromethyl)pyridin-3-yl]carbamoyl}cyclohexyl)pyrazolo[1,5-a]pyrimidine-3-carboxamide], the IC50 was determined as 290 nM.
With `Cc1cc(NC(=O)[C@H]2CC[C@H](NC(=O)c3cnn4cccnc34)CC2)c(Cl)cc1F` [Example 150, N-{trans-4-[(2-chloro-4-fluoro-5-methylphenyl)carbamoyl]cyclohexyl}pyrazolo[1,5-a]pyrimidine-3-carboxamide], the IC50 amounted to 170 nM.
Under `Cc1cc(F)cc(Cl)c1NC(=O)[C@H]1CC[C@H](NC(=O)c2cnn3cccnc23)CC1` [Example 151, N-{trans-4-[(2-chloro-4-fluoro-6-methylphenyl)carbamoyl]cyclohexyl}pyrazolo[1,5-a]pyrimidine-3-carboxamide] stands 470 nM; under `CCN(c1ccc(F)cc1Cl)C(=O)[C@H]1CC[C@H](NC(=O)c2cnn3cccnc23)CC1` [Example 154, N-{trans-4-[(2-chloro-4-fluorophenyl)(ethyl)carbamoyl]cyclohexyl}pyrazolo[1,5-a]pyrimidine-3-carboxamide], 87 nM; under `CN(c1ccc(F)cc1Cl)C(=O)[C@H]1CC[C@H](NC(=O)c2cnn3cccnc23)CC1` [Example 155, N-{trans-4-[(2-chloro-4-fluorophenyl)(methyl)carbamoyl]cyclohexyl}pyrazolo[1,5-a]pyrimidine-3-carboxamide], 140 nM.
`CN(c1ccccc1)C(=O)[C@H]1CC[C@H](NC(=O)c2cnn3cccnc23)CC1` [Example 156, N-{trans-4-[methyl(phenyl)carbamoyl]cyclohexyl}pyrazolo[1,5-a]pyrimidine-3-carboxamide]: the IC50 came out at 390 nM.
The value for `CNC(=O)c1nc[nH]c1C(=O)N[C@H]1CC[C@H](C(=O)N(CCO)c2ccc(F)cc2Cl)CC1` [Example 157, N^5-{trans-4-[(2-chloro-4-fluorophenyl)(2-hydroxyethyl)carbamoyl]cyclohexyl}-N^4-methyl-1H-imidazole-4,5-dicarboxamide] was 450 nM; that for `CC1CCN(CCNC(=O)c2nc[nH]c2C(=O)N[C@H]2CC[C@@]3(CCN(c4ccc(F)cc4Cl)C3=O)CC2)CC1` [Example 160, N^5-[(trans)-2-(2-chloro-4-fluorophenyl)-1-oxo-2-azaspiro[4.5]dec-8-yl]-N^4-[2-(4-methylpiperidin-1-yl)ethyl]-1H-imidazole-4,5-dicarboxamide] was 8 nM.
`O=C(NCCN1CCCCC1)c1nc[nH]c1C(=O)N[C@H]1CC[C@@]2(CCN(c3ccc(F)cc3Cl)C2=O)CC1` [Example 161, N^5-[(trans)-2-(2-chloro-4-fluorophenyl)-1-oxo-2-azaspiro[4.5]dec-8-yl]-N^4-[2-(piperidin-1-yl)ethyl]-1H-imidazole-4,5-dicarboxamide] showed an IC50 of 4.1 nM.
In the case of `CC(C)NC(=O)c1nc[nH]c1C(=O)N[C@H]1CC[C@@]2(CCN(c3ccc(F)cc3Cl)C2=O)CC1` [Example 162, N^5-[(trans)-2-(2-chloro-4-fluorophenyl)-1-oxo-2-azaspiro[4.5]dec-8-yl]-N^4-isopropyl-1H-imidazole-4,5-dicarboxamide], it took 13 nM to reach half-maximal inhibition (IC50).
`COCCNC(=O)c1nc[nH]c1C(=O)N[C@H]1CC[C@@]2(CCN(c3ccc(F)cc3Cl)C2=O)CC1` [Example 163, N^5-[(trans)-2-(2-chloro-4-fluorophenyl)-1-oxo-2-azaspiro[4.5]dec-8-yl]-N^4-(2-methoxyethyl)-1H-imidazole-4,5-dicarboxamide] returned an IC50 of 13 nM.
As to `O=C(NC1CC1)c1nc[nH]c1C(=O)N[C@H]1CC[C@@]2(CCN(c3ccc(F)cc3Cl)C2=O)CC1` [Example 165, N^5-[(trans)-2-(2-chloro-4-fluorophenyl)-1-oxo-2-azaspiro[4.5]dec-8-yl]-N^4-cyclopropyl-1H-imidazole-4,5-dicarboxamide], the IC50 came to 12 nM. The IC50 values of the last two compounds are within 1.5-fold of each other.
`O=C(N[C@H]1CC[C@@]2(CCN(c3ccc(F)cc3Cl)C2=O)CC1)c1[nH]cnc1C(=O)N1CC(F)C1` [Example 166, N-[(trans)-2-(2-chloro-4-fluorophenyl)-1-oxo-2-azaspiro[4.5]dec-8-yl]-4-[(3-fluoroazetidin-1-yl)carbonyl]-1H-imidazole-5-carboxamide] displayed an IC50 of 7.4 nM.

For orientation: IC50 means the concentration at which inhibition is half-maximal. High values mean weaker potency, low ones greater potency.
